From US20260294767A1, “USE OF ERGOTHIONEINE IN PROMOTING COLLAGEN GENERATION” (BLOOMAGE BIOTECHNOLOGY CORPORATION LIMITED, priority 2022, published 2026)

What was measured:
[1] = test system: type III collagen generation in primary human dermal fibroblasts; experiment: Type III collagen generation in primary human dermal fibroblasts, ELISA of culture supernatant; assay type: cell-based; settings: for Relative expression level of type III collagen: N=3, vs blank control 100.00%
Protocol: A sample solution was prepared by dissolving ergothioneine solid powder in a basic culture medium, and the concentration was adjusted to 0.001 wt %.
When the in vitro cultured fibroblasts reached 80-90% confluence, they were digested with trypsin and inoculated into 96-well plates. After 48 hours of monolayer culture in a 96-well plate, cells were treated with the ergothioneine sample prepared in step (1) (N=3), with a treatment group comprising 100 ng/mL IGF-1 was set as the positive control. After 48 hours, the cell culture supernatant was taken for ELISA assay of type III collagen, and the type III collagen content of the measured sample group was statistically compared with that of the blank control group to evaluate the effect of ergothioneine on the generation of type III collagen.
All results were presented as Mean±SD, and differences in measured data were compared using an unpaired t-test. P-value<0.05 is considered statistically significant.

[2] = test system: type III collagen generation in human fibroblast (HFF); experiment: Type III collagen content by human collagen III ELISA in human fibroblast (HFF); assay type: cell-based; settings: 0.2 wt % ergothioneine, 72 hours
Protocol: Human fibroblast (HFF) in logarithmic growth phase were collected, discarding the culture medium, washing them once with PBS, adding 0.25 wt % trypsin, incubating in a cell culture incubator for 1 minute, and then terminating digestion of the culture medium. The culture medium was centrifuged at 1000 rpm for 3 minutes, and the cells were resuspended in complete DMEM medium and counted. Human fibroblast (HFF) were inoculated into 12-well plates at a density of 3×10^5 cells/ml, with 1 ml/well. After incubation in an incubator at 37° C. and 5% CO2 for 24 hours, the culture medium was removed and the cells were washed with PBS.
The cells washed in step 1 were divided into two groups, namely a blank control group and an ergothioneine group, with 3 replicates in each group. Among them, the blank control group: 1 ml of serum-free culture medium; the ergothioneine group: 1 ml of serum-free culture medium containing 0.2 wt % ergothioneine.
After thoroughly mixing, cells in the above groups were placed in an incubator and cultured for another 72 hours.
Phase contrast microscopy was used to observe cell growth, morphology, and integrity of the cell monolayer, and changes in cell morphology and growth were recorded. The content of type III collagen was determined by using the human collagen III ELISA kit.
Type III collagen promotion rate was calculated as: […]

Row | Molecule | effect on generation of type III collagen (in words) ([1]; ergothioneine 0.001%, 48 hours, P<0.05) | Relative expression level of type III collagen ([1]; ergothioneine 0.001 wt %, 48 hours, SD 0.07, P 0.0360) [%] | effect on generation of type III collagen (in words) ([2]; compared with blank control) | activity at 0.2 wt % ([2]; Homo sapiens, Fibroblast, serum-free medium, 3 replicates, vs blank control 100.0 ± 12.3, ** P < 0.01, read-out: Relative expression level of type III collagen (%)) [%] | activation at 0.2 wt % ([2]; Homo sapiens, Fibroblast, serum-free medium, 3 replicates, vs blank control, read-out: Type III collagen promotion rate (%)) [%] | effect on synthesis of type III collagen in fibroblasts (in words) ([1]; 100 ng/mL IGF-1, 48 hours, P<0.05) | Relative expression level of type III collagen ([1]; positive control 100 ng/mL IGF-1, 48 hours, SD 0.05, P 0.0103) [%]
1 | C[N+](C)(C)[C@@H](Cc1c[nH]c(=S)[nH]1)C(=O)[O-] [Ergothioneine, ergothioneine] | significantly promotes the generation of type III collagen | 117.8 | can significantly promote the generation of type III collagen | 148 ± 20.1 | 48.3 ± 20.1 | – | –
2 | IGF-1: 100 ng/mL IGF-1 was set as the positive control | – | – | – | – | – | significantly promotes the synthesis of type III collagen in fibroblasts | 129.3
